Format in all cases: cell-based
The target in test [1] is T1, AHR (Homo sapiens, UniProt P35869).
T1 sequence (P35869 11-848): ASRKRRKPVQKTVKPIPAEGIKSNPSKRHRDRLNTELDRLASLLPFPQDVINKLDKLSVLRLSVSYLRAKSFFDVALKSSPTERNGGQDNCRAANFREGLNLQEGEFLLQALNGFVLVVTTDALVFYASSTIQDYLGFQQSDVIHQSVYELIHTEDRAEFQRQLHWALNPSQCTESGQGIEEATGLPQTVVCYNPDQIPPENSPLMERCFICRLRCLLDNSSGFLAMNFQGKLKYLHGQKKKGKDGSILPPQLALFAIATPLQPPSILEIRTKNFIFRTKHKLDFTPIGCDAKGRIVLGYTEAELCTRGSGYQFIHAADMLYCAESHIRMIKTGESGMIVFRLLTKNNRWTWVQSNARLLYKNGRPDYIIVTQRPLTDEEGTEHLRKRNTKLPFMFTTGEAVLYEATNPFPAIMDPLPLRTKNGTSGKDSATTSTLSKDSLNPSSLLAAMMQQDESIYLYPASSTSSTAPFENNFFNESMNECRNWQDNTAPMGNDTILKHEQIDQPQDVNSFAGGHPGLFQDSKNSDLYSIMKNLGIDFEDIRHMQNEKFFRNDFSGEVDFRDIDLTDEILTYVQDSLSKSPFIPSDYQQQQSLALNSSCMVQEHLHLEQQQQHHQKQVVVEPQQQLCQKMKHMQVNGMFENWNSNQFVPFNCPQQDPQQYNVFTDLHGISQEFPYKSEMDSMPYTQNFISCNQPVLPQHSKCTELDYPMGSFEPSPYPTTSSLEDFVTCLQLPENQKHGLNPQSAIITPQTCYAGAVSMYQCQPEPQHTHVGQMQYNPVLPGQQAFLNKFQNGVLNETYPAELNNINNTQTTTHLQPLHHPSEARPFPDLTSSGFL
As to the kind of experiment: In vitro assay 2: agonism in human cell line (transactivation assay, U87 cells, DRE firefly luciferase reporter). More on the design: host or cells: U87 glioblastoma cells, stably transfected with DRE firefly luciferase and renilla reporter constructs. As to conditions: no kynurenic acid, 20 hours, read-out: Assay 2: AHR-luc Hum Agonism IC50. The method in brief: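 U87 glioblastoma cells with endogenous AHR, stably carrying DRE-driven firefly luciferase and constitutive renilla reporters. 300 uM kynurenic acid served as positive activation control; data normalized to positive and negative controls.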

Test [2] has as its target T1, AHR. Kind of test: In vitro assay 1: antagonism in human cell line (transactivation assay, U87 cells prestimulated with kynurenic acid, DRE firefly luciferase reporter). More on the design: host or cells: U87 glioblastoma cells, stably transfected with DRE firefly luciferase and renilla reporter constructs. As to conditions: 150 uM kynurenic acid, 20 hours, read-out: Assay 1: AHR-luc Hum Antagonism IC50. In a few lines: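 U87 glioblastoma cells with endogenous AHR, stably carrying a DRE-driven firefly luciferase reporter and a constitutive renilla reporter. Cells prestimulated with the AHR agonist kynurenic acid before compound addition; data normalized to positive and negative controls.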
In general terms: In a reporter assay the amount or activity of a reporter protein is the signal.

The target of test [3] is T1, AHR. As to the kind of experiment: In vitro assay 3: AHR-regulated CYP1A1 expression in human cell line (U937, qPCR, KA stimulation). The following applies: U937 cells, 200 uM KA, 6 hours, CYP1A1 expression by qPCR; read-out: Assay 3: Hum CYP1A1 Antagonism IC50. The method in brief: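 U937 human monocytic cells were stimulated with 200 uM KA for 6 h, with or without compound at eight concentrations from 1 nM to 3 uM, in duplicate. CYP1A1 mRNA was quantified by Taqman qPCR as fold expression normalised to HPRT. Unstimulated cells served as negative control.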
On the technique in general: Quantitative PCR measures a nucleic acid by following its amplification.

pIC50: −log10 of the molar value. Some results are limits rather than exact numbers.

For orientation: pIC50 means −log10 of the IC50, conventionally taken in molar units. Turning to `Cn1cc(-n2nc(-c3ccc(Cl)cc3)cc(C(=O)N[C@@H]3COC[C@@H]3O)c2=O)cn1` (single isomer, unassigned; enantiomer 2) [Example 45, 6-(4-Chlorophenyl)-N-[(cis)-4-hydroxytetrahydrofuran-3-yl]-2-(1-methyl-1H-pyrazol-4-yl)-3-oxo-2,3-dihydropyridazine-4-carboxamide, Enantiomer 2], the pIC50 was less than 4.70 in test [1], 7.38 in test [2] and 7.08 in test [3].

Take `O=C(NCC(O)C(F)(F)F)c1cc(-c2ccc(Cl)cc2)nn(-c2cccnc2)c1=O` (racemic) [Example 78, 6-(4-Chlorophenyl)-3-oxo-2-(pyridin-3-yl)-N-[(2RS)-3,3,3-trifluoro-2-hydroxypropyl]-2,3-dihydropyridazine-4-carboxamide]: the pIC50 in test [1] is less than 4.70; in test [2], 8.18; in test [3], 8.32.

In the case of `C[C@H](NC(=O)c1cc(-c2ccc(N(C)C)cc2)nn(-c2cnn(C)c2)c1=O)C(C)(C)O` [Example 310, 6-[4-(Dimethylamino)phenyl]-N-[(2S)-3-hydroxy-3-methylbutan-2-yl]-2-(1-methyl-1H-pyrazol-4-yl)-3-oxo-2,3-dihydropyridazine-4-carboxamide], the figures for the pIC50 in test [1], in test [2] and in test [3] were less than 4.70, 8.77 and 8.77, respectively.

Consider `Cn1cc(-n2nc(-c3ccc(C(F)(F)F)cc3)cc(C(=O)N[C@@H]3COC[C@@H]3O)c2=O)cn1` (single isomer, unassigned) [Example 218, (+)-N-cis-4- Hydroxytetrahyd rofuran-3-yl-2-(1-methyl-1H-pyrazol-4-yl)-3-oxo-6-[4-(trifluoromethyl)phenyl]-2,3-dihydropyridazine-4-carboxamide], for which the results for the pIC50 in test [1], in test [2] and in test [3] were less than 4.70, 8.56 and 8.40, respectively.

With `O=C(N[C@H]1CCCC[C@H]1O)c1cc(-c2ccc(OC(F)(F)F)cc2)nn(-c2cccnc2)c1=O` [Example 126, N-[(1S,2R)-2-Hydroxycyclohexyl]-3-oxo-2-(pyridin-3-yl)-6-[4-(trifluoromethoxy)phenyl]-2,3-dihydropyridazine-4-carboxamide], the negative-log IC50 (pIC50) is less than 4.70 in test [1], 8.34 in test [2] and 8.29 in test [3].

Take `C[C@H](NC(=O)c1cc(-c2ccc(C(F)(F)F)cc2)nn(-c2cn[nH]c2)c1=O)C(C)(C)O` [Example 260, N-[(2S)-3-Hydroxy-3-methylbutan-2-yl]-3-oxo-2-(1H-pyrazol-4-yl)-6-[4-(trifluoromethyl)phenyl]-2,3-dihydropyridazine-4-carboxamide]: the pIC50 in test [1] is less than 4.70; in test [2], 7.53; in test [3], 7.84.

Take `C[C@@H](CO)NC(=O)c1cc(-c2ccc(Cl)cc2)nn(-c2cccnc2)c1=O` [Example 68, 6-(4-Chlorophenyl)-N-[(2S)-1-hydroxypropan-2-yl]-3-oxo-2-(pyridin-3-yl)-2,3-dihydropyridazine-4-carboxamide]: the pIC50 in test [1] was less than 4.70; in test [2], 7.62; in test [3], 7.66.

Consider `C[C@H](NC(=O)c1cc(-c2ccc(C(F)F)cc2)nn(-c2cccnc2)c1=O)C(C)(C)O` [Example 319, 6-[4-(Difluoromethyl)phenyl]-N-[(2S)-3-hydroxy-3-methylbutan-2-yl]-3-oxo-2-(pyridin-3-yl)-2,3-dihydropyridazine-4-carboxamide], for which the pIC50 in test [1] is less than 4.70; in test [2], 7.45; in test [3], 7.65.

In the case of `O=C(N[C@H]1COCC[C@H]1O)c1cc(-c2ccc(Cl)cc2)nn(-c2cccnc2)c1=O` [Example 175, 1,5-Anhydro-2-({[6-(4-chlorophenyl)-3-oxo-2-(pyridin-3-yl)-2,3-dihydropyridazin-4-yl]carbonyl}amino)-2,4-dideoxy-D-erythro-pentitol], the pIC50 in test [1] is less than 4.70; in test [2], 7.18; in test [3], 6.95.

Turning to `O=C(N[C@H]1COC[C@H]1O)c1cc(-c2ccc(Cl)cc2)nn(-c2cccnc2)c1=O` (single isomer, unassigned) [Example 173, 6-(4-Chlorophenyl)-N-[(cis)-4-hydroxytetrahydrofuran-3-yl]-3-oxo-2-(pyridin-3-yl)-2,3-dihydropyridazine-4-carboxamide], the figures for the pIC50 in test [1], in test [2] and in test [3] were less than 4.70, 7.26 and 6.85, respectively.

Regarding `Cn1cc(-n2nc(-c3ccc(Cl)cc3)cc(C(=O)N[C@H](CO)C(F)(F)F)c2=O)cn1` [Example 35, (+)-6-(4-Chlorophenyl)-2-(1-methyl-1H-pyrazol-4-yl)-3-oxo-N-[(2R)-1,1,1-trifluoro-3-hydroxypropan-2-yl]-2,3-dihydropyridazine-4-carboxamide], the pIC50 in test [1] is less than 4.70; in test [2], 8.82; in test [3], 7.39.

On to `O=C(N[C@H]1CCCC[C@H]1O)c1cc(-c2ccc(Cl)cc2)nn(-c2cccnc2)c1=O` [Example 125, 6-(4-Chlorophenyl)-N-[(1S,2R)-2-hydroxycyclohexyl]-3-oxo-2-(pyridin-3-yl)-2,3-dihydropyridazine-4-carboxamide], for which the pIC50 in test [1] was less than 4.70; in test [2] it was 8.42; in test [3], 8.36.

On to `O=C(N[C@H]1COC[C@H]1O)c1cc(-c2ccc(OC(F)(F)F)cc2)nn(-c2cccnc2)c1=O` (single isomer, unassigned; enantiomer 2) [Example 159, N-[(cis)-4-Hydroxytetrahydrofuran-3-yl]-3-oxo-2-(pyridin-3-yl)-6-[4-(trifluoromethoxy)phenyl]-2,3-dihydropyridazine-4-carboxamide, Enantiomer 2], for which the pIC50 in test [1] is less than 4.70; in test [2], 7.24; in test [3], 7.01.

As to `O=C(NC[C@H](O)CO)c1cc(-c2ccc(Cl)cc2)nn(-c2cccnc2)c1=O` [Example 72, (−)-6-(4-Chlorophenyl)-N-[(2S)-2,3-dihydroxypropyl]-3-oxo-2-(pyridin-3-yl)-2,3-dihydropyridazine-4-carboxamide], the pIC50 in test [1] is less than 4.70; in test [2] it was 6.74; in test [3], 6.31.

`O=C(NC(CO)C(F)(F)F)c1cc(-c2ccc(OC(F)(F)F)cc2)nn(-c2cccnc2)c1=O` (stereo not drawn) [Example 149, 3-Oxo-2-(pyridin-3-yl)-N-(1,1,1-trifluoro-3-hydroxypropan-2-yl)-6-[4-(trifluoromethoxy)phenyl]-2,3-dihydropyridazine-4-carboxamide]: the figures for the pIC50 in test [1], in test [2] and in test [3] were less than 4.70, 7.73 and 7.95, respectively.

Turning to `Cc1ccc(-c2cc(C(=O)NC(CO)C(C)C)c(=O)n(-c3cnn(C)c3)n2)cc1` (single isomer, unassigned) [Example 2, N-(1-Hydroxy-3-methylbutan-2-yl)-6-(4-methylphenyl)-2-(1-methyl-1H-pyrazol-4-yl)-3-oxo-2,3-dihydropyridazine-4-carboxamide], the pIC50 in test [1] is less than 4.70; in test [2] it was 8.59; in test [3] it was 8.52.

With `O=C(N[C@@H]1CCC[C@H]1O)c1cc(-c2ccc(C(F)(F)F)cc2)nn(-c2cccnc2)c1=O` [Example 104, N-[(1R,2R)-2-Hydroxycyclopentyl]-3-oxo-2-(pyridin-3-yl)-6-[4-(trifluoromethyl)phenyl]-2,3-dihydropyridazine-4-carboxamide], the pIC50 in test [1] was less than 4.70; in test [2], 7.69; in test [3], 7.83.

Regarding `C[C@@H](CO)NC(=O)c1cc(-c2ccc(Cl)cc2)nn(-c2ccn(C)n2)c1=O` [Example 192, 6-(4-Chlorophenyl)-N-[(2S)-1-hydroxypropan-2-yl]-2-(1-methyl-1H-pyrazol-3-yl)-3-oxo-2,3-dihydropyridazine-4-carboxamide], the pIC50 in test [1] is less than 4.70; in test [2] it was 6.47; in test [3], 8.37.

For the origin of these results see patent US12522594B2, “2-heteroaryl-3-oxo-2,3-dihydropyridazine-4-carboxamides for the treatment of cancer” (Deutsches Krebsforschungszentrum, priority 2017, dated 2026).
